In US20250002507A1, “7,8-DIHYDRO-5H-1,6-NAPHTHYRIDINE DERIVATIVES AS POSITIVE ALLOSTERIC MODULATORS OF THE MUSCARINIC ACETYLCHOLINE RECEPTOR M4 FOR TREATING NEUROLOGICAL AND PSYCHIATRIC DISORDERS” (Vanderbilt University, priority 2021, published 2025):
Like-named read-outs stand apart in the source and are kept apart here.

Target: T1, Human M4 (Homo sapiens, UniProt P08173)
T1 construct: expressed in transfected cells
T1 sequence (P08173 1-479): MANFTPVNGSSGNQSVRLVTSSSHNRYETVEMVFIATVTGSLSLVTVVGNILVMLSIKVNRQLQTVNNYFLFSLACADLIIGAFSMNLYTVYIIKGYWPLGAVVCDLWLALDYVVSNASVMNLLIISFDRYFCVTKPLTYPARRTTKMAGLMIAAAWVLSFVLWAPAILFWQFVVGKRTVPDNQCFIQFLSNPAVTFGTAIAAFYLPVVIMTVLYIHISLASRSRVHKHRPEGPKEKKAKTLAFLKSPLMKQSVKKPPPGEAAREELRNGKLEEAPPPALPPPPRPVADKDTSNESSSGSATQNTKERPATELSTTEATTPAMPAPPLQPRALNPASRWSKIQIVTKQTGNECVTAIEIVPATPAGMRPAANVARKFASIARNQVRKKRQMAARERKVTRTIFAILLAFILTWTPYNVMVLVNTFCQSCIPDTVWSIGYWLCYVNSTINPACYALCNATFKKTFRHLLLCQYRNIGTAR
Assay: mAChR M4 cell-based functional assay (calcium flux, potentiation of EC20 acetylcholine response), hM4-Gqi5 CHO-K1 cells
Settings: for Emax at 30 µM: % ACh maximum at 30 μM; for EC50: calcium flux, read-out: Human M4 EC50
Protocol: Human and rat M4 cDNAs, along with the chimeric G protein Gqi5, were transfected into Chinese hamster ovary (CHO-K1) cells purchased from the American Type Culture Collection using Lipofectamine2000. hM4-Gqi5 cells were grown in Ham's F-12 medium containing 10% heat-inactivated fetal bovine serum (FBS), 20 mM HEPES, 50 μg/mL G418 sulfate, and 500 μg/mL Hygromycin B. rM4-Gqi5 cells were grown in DMEM containing 10% heat-inactivated FBS, 20 mM HEPES, 400 μg/mL G418 sulfate, and 500 μg/mL Hygromycin B.
For high throughput measurement of agonist-evoked increases in intracellular calcium, CHO-K1 cells stably expressing muscarinic receptors were plated in growth medium lacking G418 and hygromycin at 15,000 cells/20 μL/well in Greiner 384-well black-walled, tissue culture (TC)-treated, clear-bottom plates (VWR). Cells were incubated overnight at 37° C. and 5% CO2. The next day, cells were washed using an ELX 405 (BioTek) with assay buffer; the final volume was then aspirated to 20 μL. Next, 20 μL of a 2.3 μM stock of Fluo-4/acetoxymethyl ester (Invitrogen, Carlsbad, CA), prepared as a 2.3 mM stock in DMSO and mixed in a 1:1 ratio with 10% (w/v) Pluronic F-127 and diluted in assay buffer, was added to the wells and the cell plates were incubated for 50 min at 37° C. and 5% CO2. Dye was removed by washing with the ELX 405 and the final volume was aspirated to 20 μL. Compound master plates were formatted in an 11 point concentration-response curve (CRC) format (1:3 dilutions) in 100% DMSO with a starting concentration of 10 mM using a BRAVO liquid handler (Agilent). Test compound CRCs were then transferred to daughter plates (240 nL) using the Echo acoustic plate reformatter (Labcyte, Sunnyvale, CA) and then diluted into assay buffer (40 μL) to a 2× stock using a Thermo Fisher Combi (Thermo Fisher Scientific, Waltham, MA).
Calcium flux was measured using the Functional Drug Screening System (FDSS) 6000 or 7000 (Hamamatsu Corporation, Tokyo, Japan) as an increase in the fluorescent static ratio. Compounds were applied to cells (20 μL, 2×) using the automated system of the FDSS at 2-4 seconds into the protocol and the data were collected at 1 Hz. At 144 seconds, 10 μL of an EC20 concentration of the muscarinic receptor agonist acetylcholine was added (5×), followed by the addition of 12 μL of an EC80 concentration of acetylcholine at the 230 second time point (5×). Agonist activity was analyzed as a concentration-dependent increase in calcium mobilization upon compound addition. Positive allosteric modulator activity was analyzed as a concentration-dependent increase in the EC20 acetylcholine response. Antagonist activity was analyzed as a concentration-dependent decrease in the EC80 acetylcholine response. Concentration-response curves were generated using a four-parameter logistical equation in XLFit curve fitting software (IDBS, Bridgewater, NJ) for Excel (Microsoft, Redmond, WA) or Prism (GraphPad Software, Inc., San Diego, CA).
Compounds were synthesized as described above. Activity (EC50 and Emax) was determined in the mAChR M4 cell-based functional assay as described above and the data are shown in Tables 2-4. The compound number corresponds to the compound numbers used in Table 1.

[1] = CHO-K1, Table 3, Human M4, read-out: Emax (% ACh maximum at 30 μM)
[2] = Table 3, potentiation of EC20 acetylcholine response, CHO-K1 cells
[3] = CHO-K1, Table 4, Human M4, read-out: Emax (% ACh maximum at 30 μM)
[4] = Table 4, potentiation of EC20 acetylcholine response, CHO-K1 cells
[5] = CHO-K1, human M4, read-out: Emax
[6] = hM4-Gqi5 CHO-K1 cells, PAM of EC20 acetylcholine

Emax at 30 µM [1]	EC50 [2]	SMILES	other results
84%	3380 nM	CC(=O)Nc1cnc2c(c1)CN(c1nn3cnnc3c(C)c1C)CC2 [Compound 153, N-(6-(7,8-dimethyl-[1,2,4]triazolo[4,3-b]pyridazin-6-yl)-5,6,7,8-tetrahydro-1,6-naphthyridin-3-yl)acetamide]	–
–	–	Cc1c(N2CCc3ncc(Nc4ccncc4F)cc3C2)nn2cnnc2c1C [Compound 361, 6-(7,8-dimethyl-[1,2,4]triazolo[4,3-b]pyridazin-6-yl)-N-(3-fluoropyridin-4-yl)-5,6,7,8-tetrahydro-1,6-naphthyridin-3-amine]	Emax at 30 µM [3]: 100%; EC50 [4]: 2 nM
76%	494 nM	Cc1c(N2CCc3ncc(-c4ccn(C)n4)cc3C2)nn2c(C(F)(F)F)nnc2c1C [Compound 254, 6-(7,8-dimethyl-3-(trifluoromethyl)-[1,2,4]triazolo[4,3-b]pyridazin-6-yl)-3-(1-methyl-1H-pyrazol-3-yl)-5,6,7,8-tetrahydro-1,6-naphthyridine]	–
–	–	Cc1c(N2CCc3ncc(-c4cnn(C5CCNCC5)c4)cc3C2)nn2cnnc2c1C [Compound 148, 6-(7,8-dimethyl-[1,2,4]triazolo[4,3-b]pyridazin-6-yl)-3-[1-(4-piperidyl)pyrazol-4-yl]-7,8-dihydro-5H-1,6-naphthyridine]	Emax at 30 µM [5]: 106%; EC50 [6]: 296 nM
–	–	Cc1c(N2CCc3ncc(C(=O)NCC4CCCOC4)cc3C2)nn2cnnc2c1C (centres unmarked) [Compound 116, 6-(7,8-dimethyl-[1,2,4]triazolo[4,3-b]pyridazin-6-yl)-N-(tetrahydropyran-3-ylmethyl)-7,8-dihydro-5H-1,6-naphthyridine-3-carboxamide]	Emax at 30 µM [5]: 75%
82%	1580 nM	Cc1c(N2CCc3ncc(OCC4COC4)cc3C2)nn2cnnc2c1C [Compound 262, 6-(7,8-dimethyl-[1,2,4]triazolo[4,3-b]pyridazin-6-yl)-3-(oxetan-3-ylmethoxy)-5,6,7,8-tetrahydro-1,6-naphthyridine]	–
–	–	Cc1c(N2Cc3cc(C(F)(F)F)cnc3CC2C)nn2cnnc2c1C (centres unmarked) [Compound 307, 6-(7,8-Dimethyl-[1,2,4]triazolo[4,3-b]pyridazin-6-yl)-7-methyl-3-(trifluoromethyl)-5,6,7,8-tetrahydro-1,6-naphthyridine]	Emax at 30 µM [3]: 96%; EC50 [4]: 299 nM
107%	754 nM	Cc1c(N2CCc3ncc(Nc4cnn(C)c4)cc3C2)nn2cnnc2c1C [Compound 163, 6-(7,8-dimethyl-[1,2,4]triazolo[4,3-b]pyridazin-6-yl)-N-(1-methyl-1H-pyrazol-4-yl)-5,6,7,8-tetrahydro-1,6-naphthyridin-3-amine]	–
84%	334 nM	Cc1cc2nncn2nc1N1CCc2ncc(-c3cccnc3)cc2C1 [Compound 199, 6-(7-methyl-[1,2,4]triazolo[4,3-b]pyridazin-6-yl)-3-(pyridin-3-yl)-5,6,7,8-tetrahydro-1,6-naphthyridine]	–
85%	698 nM	Cc1c(N2CCc3ncc(N4CCC(F)(F)CC4)cc3C2)nn2c(C(F)(F)F)nnc2c1C [Compound 280, 3-(4,4-difluoropiperidin-1-yl)-6-(7,8-dimethyl-3-(trifluoromethyl)-[1,2,4]triazolo[4,3-b]pyridazin-6-yl)-5,6,7,8-tetrahydro-1,6-naphthyridine]	–
–	–	Cc1cnc2c(c1)CN(c1nn3cnnc3c(C)c1C)CC2 [Compound 5, 6-(7,8-Dimethyl-[1,2,4]triazolo[4,3-b]pyridazin-6-yl)-3-methyl-7,8-dihydro-5H-1,6-naphthyridine]	Emax (CHO-K1): 95%; EC50 [6]: 230 nM
–	–	Cc1c(N2CCc3ncc(Cc4ccccc4F)cc3C2)nn2cnnc2c1C [Compound 308, 6-(7,8-dimethyl-[1,2,4]triazolo[4,3-b]pyridazin-6-yl)-3-(2-fluorobenzyl)-5,6,7,8-tetrahydro-1,6-naphthyridine]	Emax at 30 µM [3]: 91%; EC50 [4]: 110 nM
96%	155 nM	Cc1cc2nncn2nc1N1CCc2ncc(Oc3ccc(F)cc3F)cc2C1 [Compound 293, 3-(2,4-difluorophenoxy)-6-(7-methyl-[1,2,4]triazolo[4,3-b]pyridazin-6-yl)-5,6,7,8-tetrahydro-1,6-naphthyridine]	–
–	–	Cc1c(N2CCc3ncc(-c4ccnn4C(C)C)cc3C2)nn2cnnc2c1C [Compound 13, 6-(7,8-Dimethyl-[1,2,4]triazolo[4,3-b]pyridazin-6-yl)-3-(2-isopropylpyrazol-3-yl)-7,8-dihydro-5H-1,6-naphthyridine]	Emax (CHO-K1): 62%; EC50 [6]: 285 nM
65%	165 nM	Cc1cnn(C)c1-c1cnc2c(c1)CN(c1nn3c(C(F)(F)F)nnc3c(C)c1C)CC2 [Compound 236, 3-(1,4-dimethyl-1H-pyrazol-5-yl)-6-(7,8-dimethyl-3-(trifluoromethyl)-[1,2,4]triazolo[4,3-b]pyridazin-6-yl)-5,6,7,8-tetrahydro-1,6-naphthyridine]	–
–	–	Cc1c(N2CCc3ncc(Nc4ccc(Cl)cc4F)cc3C2)nn2cnnc2c1C [Compound 68, N-(4-chloro-2-fluoro-phenyl)-6-(7,8-dimethyl-[1,2,4]triazolo[4,3-b]pyridazin-6-yl)-7,8-dihydro-5H-1,6-naphthyridin-3-amine]	Emax at 30 µM [5]: 96%; EC50 [6]: 386 nM
–	–	Cc1c(N2CCc3ncc(N4CCO[C@H](c5ccccc5)C4)cc3C2)nn2c(C(F)(F)F)nnc2c1C [Compound 322, (R)-4-(6-(7,8-dimethyl-3-(trifluoromethyl)-[1,2,4]triazolo[4,3-b]pyridazin-6-yl)-5,6,7,8-tetrahydro-1,6-naphthyridin-3-yl)-2-phenylmorpholine]	Emax at 30 µM [3]: 96%; EC50 [4]: 3140 nM
–	–	Cc1ccc2c(n1)CCN(c1nn3cnnc3c(C)c1C)C2 [Compound 128, 6-(7,8-dimethyl-[1,2,4]triazolo[4,3-b]pyridazin-6-yl)-2-methyl-7,8-dihydro-5H-1,6-naphthyridine]	Emax (CHO-K1): 103%; EC50 [6]: 380 nM
77%	158 nM	Cc1c(N2CCc3ncc(-c4cnn(C)c4)cc3C2)nn2c(C(F)(F)F)nnc2c1C [Compound 240, 6-(7,8-dimethyl-3-(trifluoromethyl)-[1,2,4]triazolo[4,3-b]pyridazin-6-yl)-3-(1-methyl-1H-pyrazol-4-yl)-5,6,7,8-tetrahydro-1,6-naphthyridine]	–

SMILES	Emax at 30 µM [1]	EC50 [2]	other results
Cc1c(N2CCc3ncc(OCC(C)C)cc3C2)nn2cnnc2c1C [Compound 221, 6-(7,8-dimethyl-[1,2,4]triazolo[4,3-b]pyridazin-6-yl)-3-isobutoxy-5,6,7,8-tetrahydro-1,6-naphthyridine]	76%	588 nM	–
Cc1c(N2CCc3ncc(N)cc3C2)nn2cnnc2c1C [Compound 152, 6-(7,8-dimethyl-[1,2,4]triazolo[4,3-b]pyridazin-6-yl)-5,6,7,8-tetrahydro-1,6-naphthyridin-3-amine]	–	1280 nM	Emax (CHO-K1, read-out: Emax (% ACh maximum at 30 μM)): 102%
